The text below walks through data of PMC11995724, “Antibiotic target discovery by integrated phenotypic and activity-based profiling of electrophilic fragments” (Cell chemical biology, 2025).

Structures can show the parent of a compound that is named as a salt.

The data set is described as follows: in vitro. The settings on record: human, hek293t cells.
Description: Mammalian cytotoxicity measurement was performed using Cell Titer-Glo 2.0 Cell Viability Assay (Promega, G9243) according to the manufacturer protocol. In brief, mammalian cells were seeded into 384-well white plates (Greiner, 781080) and incubated at 37°C for one day. Compounds from the Cys-Library were dispensed into the assay plate using epMotion 96. The plates were then incubated at 37°C for two days. An equal volume of Cell Titer-Glo 2.0 reagent was added into each well of the assay plate using epMotion 96 and incubated at 22°C for 10 min, followed by luminescence measurement using a Cytation 5 plate reader (BioTek).
As to `Cc1ccc(NC(=O)N2CCN(C(=O)C=CCN(C)C)CC2)cc1` [10-H16, 4-[4-(dimethylamino)but-2-enoyl]-N-(4-methylphenyl)piperazine-1-carboxamide], the viability (as a rule, a read-out of living cells in per cent, often relative to untreated cells) at 48 h, 25 µM was determined as 94.2%.

As to `O=C(CCl)c1ccc2c(c1)-c1ccccc1C2` [10-H17, 2-chloro-1-(9H-fluoren-3-yl)ethan-1-one], the viability at 48 h, 25 µM amounted to 51.2%.

`Cc1cc(C(=O)CCl)c(C)n1-c1ccc(Cl)cc1` [10-H18, 2-chloro-1-[1-(4-chlorophenyl)-2,5-dimethyl-1H-pyrrol-3-yl]ethan-1-one]: the viability at 48 h, 25 µM worked out at 0.517%.

In the case of `CS(=O)(=O)N1CCCc2cc(C(=O)CCl)ccc21` [10-H19, 2-chloro-1-(1-methanesulfonyl-1,2,3,4-tetrahydroquinolin-6-yl)ethan-1-one], the viability at 48 h, 25 µM came to 72%.

Regarding `Cc1ccccc1-n1c(C)cc(C(=O)CCl)c1C` [10-H20, 2-chloro-1-[2,5-dimethyl-1-(2-methylphenyl)-1H-pyrrol-3-yl]ethan-1-one], the viability at 48 h, 25 µM amounted to 0.349%.

Turning to `COc1ccc(NC(=O)N2CCSSCC2)cc1` [10-H21, N-(4-methoxyphenyl)-1,2,5-dithiazepane-5-carboxamide], the viability at 48 h, 25 µM was determined as 103%.

As for `COc1ccc(C(=O)C(C)Cl)cc1` (centres unmarked) [10-H22, 2-chloro-1-(4-methoxyphenyl)propan-1-one], the viability at 48 h, 25 µM turned out to be 73.6%.

Regarding `NC(=O)CCc1ccc(C(=O)CCl)cc1` [10-I03, 3-[4-(2-chloroacetyl)phenyl]propanamide], the viability at 48 h, 25 µM amounted to 4.69%.

Take `Cc1cc(C(=O)CCl)c(C)n1-c1cc(Cl)cc(Cl)c1` [10-I04, 2-chloro-1-[1-(3,5-dichlorophenyl)-2,5-dimethyl-1H-pyrrol-3-yl]ethan-1-one]: the viability at 48 h, 25 µM amounted to 0.227%.

For `NS(=O)(=O)c1cccc(N2C(=O)C=CC2=O)c1` [10-I05, 3-(2,5-dioxo-2,5-dihydro-1H-pyrrol-1-yl)benzene-1-sulfonamide], the viability at 48 h, 25 µM is 93.4%.

In the case of `Cc1cc(C(=O)CCl)c(C)c(C)c1C` [10-I06, 2-chloro-1-(2,3,4,5-tetramethylphenyl)ethan-1-one], the viability at 48 h, 25 µM amounted to 0.728%.

For `CN(C)C(=O)c1csc(C(=O)CCl)c1` [10-I07, 5-(2-chloroacetyl)-N,N-dimethylthiophene-3-carboxamide], the viability at 48 h, 25 µM was 56.6%.

For the molecule `Cc1cc(C(=O)CCl)c(C)n1C(c1ccccc1)c1ccccc1` [10-I08, 2-chloro-1-[1-(diphenylmethyl)-2,5-dimethyl-1H-pyrrol-3-yl]ethan-1-one], the viability at 48 h, 25 µM stood at 1.32%.

Take `O=C(CCl)c1ccncc1F` [10-I09, 2-chloro-1-(3-fluoropyridin-4-yl)ethan-1-one hydrochloride]: the viability at 48 h, 25 µM is 85%.

With `CC(=O)NCc1ccc(C(=O)CCl)o1` [10-I10, N-{[5-(2-chloroacetyl)furan-2-yl]methyl}acetamide], the viability at 48 h, 25 µM was 86.8%.

Turning to `COC(=O)c1cccc(C(=O)CCl)c1` [10-I11, methyl 3-(2-chloroacetyl)benzoate], the viability at 48 h, 25 µM is 1.87%.

With `COc1ccc(-n2c(C)cc(C(=O)CCl)c2C)cc1` [10-I12, 2-chloro-1-[1-(4-methoxyphenyl)-2,5-dimethyl-1H-pyrrol-3-yl]ethan-1-one], the viability at 48 h, 25 µM worked out at 0.472%.

`CS(=O)(=O)c1ccc(C(=O)CCl)cc1` [10-I13, 2-chloro-1-(4-methanesulfonylphenyl)ethan-1-one]: the viability at 48 h, 25 µM came out at 65.1%.

Regarding `O=C(CCl)c1ccc2[nH]c(=O)[nH]c2c1` [10-I14, 5-(2-chloroacetyl)-2,3-dihydro-1H-1,3-benzodiazol-2-one], the viability at 48 h, 25 µM came out at 1.71%.

Turning to `O=C(CCl)Cc1cc(Cl)cc(Cl)c1` [10-I15, 1-chloro-3-(3,5-dichlorophenyl)propan-2-one], the viability at 48 h, 25 µM worked out at 3.97%.

Consider `Cn1c(N)c(C(=O)CCl)c(=O)[nH]c1=O` [10-I16, 6-amino-5-(2-chloroacetyl)-1-methyl-1,2,3,4-tetrahydropyrimidine-2,4-dione], for which the viability at 48 h, 25 µM is 104%.

On to `CC(C)c1ccc(CC(=O)CCl)cc1` [10-I17, 1-chloro-3-[4-(propan-2-yl)phenyl]propan-2-one], for which the viability at 48 h, 25 µM is 73.5%.

As to `O=C(CCl)c1ccc(F)cc1F` [10-I18, 2-chloro-1-(2,4-difluorophenyl)ethan-1-one], the viability at 48 h, 25 µM amounted to 77.2%.

Regarding `Cc1cccc(CC(=O)CCl)c1` [10-I19, 1-chloro-3-(3-methylphenyl)propan-2-one], the viability at 48 h, 25 µM amounted to 68.3%.

Turning to `CC(=O)N1c2ccc(C(=O)CCl)cc2CC1C` (centres unmarked) [10-I20, 1-(1-acetyl-2-methyl-2,3-dihydro-1H-indol-5-yl)-2-chloroethan-1-one], the viability at 48 h, 25 µM turned out to be 3.53%.

For the molecule `CCn1cc(N2C(=O)C=CC2=O)cn1` [10-I21, 1-(1-ethyl-1H-pyrazol-4-yl)-2,5-dihydro-1H-pyrrole-2,5-dione], the viability at 48 h, 25 µM was found to be 38.5%.

With `CC(C)C(C(=O)O)N1C(=O)C=CC1=O` (centres unmarked) [10-I22, 2-(2,5-dioxo-2,5-dihydro-1H-pyrrol-1-yl)-3-methylbutanoic acid], the viability at 48 h, 25 µM was 106%.

As for `O=C(CCl)c1ccccn1` [10-J03, 2-chloro-1-(pyridin-2-yl)ethan-1-one], the viability at 48 h, 25 µM came out at 94.4%.

In the case of `N#CC(C(=O)CCl)=C1Nc2ccccc2S1` [10-J04, 4-chloro-2-(2,3-dihydro-1,3-benzothiazol-2-ylidene)-3-oxobutanenitrile], the viability at 48 h, 25 µM was 0.855%.

For the molecule `Cc1nn(CCC(=O)N2CCSSCC2)c(C)c1[N+](=O)[O-]` [10-J05, 3-(3,5-dimethyl-4-nitro-1H-pyrazol-1-yl)-1-(1,2,5-dithiazepan-5-yl)propan-1-one], the viability at 48 h, 25 µM is 96.8%.

As to `Cn1cc(C(=O)CCl)cc1C(N)=O` [10-J06, 4-(2-chloroacetyl)-1-methyl-1H-pyrrole-2-carboxamide], the viability at 48 h, 25 µM came out at 1.55%.

For the molecule `NC(=O)Nc1ccc(C(=O)CCl)cc1` [10-J07, [4-(2-chloroacetyl)phenyl]urea], the viability at 48 h, 25 µM came out at 108%.

As for `Cc1cc(C(=O)CCl)c(C)[nH]1` [10-J08, 2-chloro-1-(2,5-dimethyl-1H-pyrrol-3-yl)ethan-1-one], the viability at 48 h, 25 µM worked out at 1.07%.

For `O=S(=O)(c1cc(Cl)cc(Cl)c1)N1CCSSCC1` [10-J09, 5-(3,5-dichlorobenzenesulfonyl)-1,2,5-dithiazepane], the viability at 48 h, 25 µM amounted to 102%.

For the molecule `Cn1ncc(C(=O)CCl)n1` [10-J10, 2-chloro-1-(2-methyl-2H-1,2,3-triazol-4-yl)ethan-1-one], the viability at 48 h, 25 µM stood at 85.5%.

Take `CC(=O)Nc1ccc(NC(=O)N2CCSSCC2)cc1` [10-J11, N-(4-acetamidophenyl)-1,2,5-dithiazepane-5-carboxamide]: the viability at 48 h, 25 µM is 120%.

Regarding `Cc1cc(C(=O)CCl)c(C)n1-c1ccc(C(C)C)cc1` [10-J12, 2-chloro-1-{2,5-dimethyl-1-[4-(propan-2-yl)phenyl]-1H-pyrrol-3-yl}ethan-1-one], the viability at 48 h, 25 µM was 0.754%.

As to `Cc1ccccc1N1C(=O)C=CC1=O` [10-J13, 1-(2-methylphenyl)-2,5-dihydro-1H-pyrrole-2,5-dione], the viability at 48 h, 25 µM is 109%.

As for `Cc1cc(C(=O)CCl)c(C)n1-c1ccc(C(F)(F)F)cc1` [10-J14, 2-chloro-1-{2,5-dimethyl-1-[4-(trifluoromethyl)phenyl]-1H-pyrrol-3-yl}ethan-1-one], the viability at 48 h, 25 µM is 0.425%.

In the case of `COc1ccc(N2C(=O)C=CC2=O)c(OC)c1` [10-J15, 1-(2,4-dimethoxyphenyl)-2,5-dihydro-1H-pyrrole-2,5-dione], the viability at 48 h, 25 µM turned out to be 109%.

Consider `CSc1cccc(-n2c(C)cc(C(=O)CCl)c2C)c1` [10-J16, 2-chloro-1-{2,5-dimethyl-1-[3-(methylsulfanyl)phenyl]-1H-pyrrol-3-yl}ethan-1-one], for which the viability at 48 h, 25 µM amounted to 0.898%.

On to `COc1ccc(C(=O)C(C)Cl)c(OC)c1` (centres unmarked) [10-J17, 2-chloro-1-(2,4-dimethoxyphenyl)propan-1-one], for which the viability at 48 h, 25 µM is 91.9%.

As for `Nc1c(C(=O)CCl)c(=O)[nH]c(=O)n1Cc1ccccc1` [10-J18, 6-amino-1-benzyl-5-(2-chloroacetyl)-1,2,3,4-tetrahydropyrimidine-2,4-dione], the viability at 48 h, 25 µM is 88.2%.

In the case of `O=C1C=CC(=O)N1c1ccc(OC(F)(F)F)cc1` [10-J19, 1-[4-(trifluoromethoxy)phenyl]-2,5-dihydro-1H-pyrrole-2,5-dione], the viability at 48 h, 25 µM was 85.4%.

Regarding `CCOC(=O)c1c(C)[nH]c(C(=O)CCl)c1C` [10-J20, ethyl 5-(2-chloroacetyl)-2,4-dimethyl-1H-pyrrole-3-carboxylate], the viability at 48 h, 25 µM worked out at 1.66%.

Take `Cc1cc(Cl)ccc1OC(C)C(=O)N1CCSSCC1` (centres unmarked) [10-J21, 2-(4-chloro-2-methylphenoxy)-1-(1,2,5-dithiazepan-5-yl)propan-1-one]: the viability at 48 h, 25 µM was 110%.

On to `CC(Cl)C(=O)C=C1N(C)c2ccccc2C1(C)C` (centres unmarked) [10-J22, 3-chloro-1-(1,3,3-trimethyl-2,3-dihydro-1H-indol-2-ylidene)butan-2-one], for which the viability at 48 h, 25 µM is 5.56%.

As to `COc1cccc(N2C(=O)C=CC2=O)c1` [10-K03, 1-(3-methoxyphenyl)-2,5-dihydro-1H-pyrrole-2,5-dione], the viability at 48 h, 25 µM stood at 18.5%.

As for `Cc1cc(C(=O)CCl)c(C)n1-c1ccc(OC(F)F)c(Cl)c1` [10-K04, 2-chloro-1-{1-[3-chloro-4-(difluoromethoxy)phenyl]-2,5-dimethyl-1H-pyrrol-3-yl}ethan-1-one], the viability at 48 h, 25 µM came out at 0.0199%.

For the molecule `O=C(CCl)c1c[nH]c2ccncc12` [10-K05, 2-chloro-1-{1H-pyrrolo[3,2-c]pyridin-3-yl}ethan-1-one], the viability at 48 h, 25 µM was 1.3%.

Consider `CC(=O)Nc1ccc(C(=O)C(C)Cl)cc1` (centres unmarked) [10-K06, N-[4-(2-chloropropanoyl)phenyl]acetamide], for which the viability at 48 h, 25 µM is 101%.

For the molecule `O=C1C=CC(=O)N1CCCCO` [10-K07, 1-(4-hydroxybutyl)-2,5-dihydro-1H-pyrrole-2,5-dione], the viability at 48 h, 25 µM stood at 39.9%.

For the molecule `CCOc1ccc(-n2c(C)cc(C(=O)CCl)c2C)cc1` [10-K08, 2-chloro-1-[1-(4-ethoxyphenyl)-2,5-dimethyl-1H-pyrrol-3-yl]ethan-1-one], the viability at 48 h, 25 µM amounted to 0.112%.
